Source: patent US7910740B2, “Modulators of amyloid beta” (Hoffmann-La Roche Inc., priority 2007, dated 2011)

Test system: γ-secretase
Assay: Cellular γ-secretase assay (inhibition of Aβ42 secretion)
Type: cell-based
Conditions: human neuroglioma H4 cells overexpressing human APP, incubation for 22 hrs, read-out: IC50 in vitro
Procedure: Cellular γ-Secretase Assay
Human neuroglioma H4 cells overexpressing human APP were plated at 30,000 cells/well/200 μl in 96-well plates in IMDM media containing 10% FCS, 0.2 mg/l Hygromycin B and incubated for 2 h at 37° C., 5% CO2 prior to adding test compounds.
Compounds for testing were dissolved in 100% Me2SO yielding in a 10 mM stock solution.
Typically 12 μl of these solutions were further diluted in 1000 μl of IMDM media (w/o FCS,). Sub sequential 1:1 dilutions gave a ten point dose response curve. 100 μl of each dilution was added to the cells in 96-well plates. Appropriate controls using vehicle only and reference compound were applied to this assay. The final concentration of Me2SO was 0.4%.
After incubation for 22 hrs at 37° C., 5% CO2, 50 μl supernatant was transferred into round-bottom 96-well polypropylene plates for detection of Aβ42. 50 μl assay buffer (50 mM Tris/Cl, pH 7.4, 60 mM NaCl, 0.5% BSA, 1% TWEEN 20) was added to the wells followed by the addition of 100 μl of detection antibody (ruthenylated BAP15 0.0625 μg/ml in assay buffer). 50 μl of a premix of capture antibody (biotinylated 6E10 antibody, 1 μg/ml) and Steptavidin-coated magnetic beads (Dynal M-280, 0.125 mg/ml) were preincubated for 1 hr at room temperature before adding the assay plates. Assay plates were incubated on a shaker for 3 hrs at room temperature and finally read in the Bioveris M8 Analyser according to the manufacturer's instructions (Bioveris).
IC50 values for inhibition of Aβ42 secretion were calculated by nonlinear regression fit analysis using XLfit 4.0 software (IDBS).

Row | Compound | IC50
1 | COc1ccc(Br)cc1-c1csc(Nc2ccc(-n3cnc(C)c3)c(OC)c2)n1 [Example 16, [4-(5-Bromo-2-methoxy-phenyl)-thiazol-2-yl]-[3-methoxy-4-(4-methyl-imidazol-1-yl)-phenyl]-amine] | 900 nM
2 | COc1ccc(Br)cc1-c1csc(Nc2ccc(-n3cnc(C)c3)cc2)n1 [Example 21, [4-(5-Bromo-2-methoxy-phenyl)-thiazol-2-yl]-[4-(4-methyl-imidazol-1-yl)-phenyl]-amine] | 880 nM
3 | COc1ccc(Br)cc1-c1csc(Nc2ccc(-n3ccnc3)c(OC)c2)n1 [Example 22, [4-(5-Bromo-2-methoxy-phenyl)-thiazol-2-yl]-(4-imidazol-1-yl-3-methoxy-phenyl)-amine] | 790 nM
4 | COc1cc(Nc2nc(CC(=O)Nc3ccc(F)cc3)cs2)ccc1-n1cnc(C)c1 [Example 29, N-(4-Fluoro-phenyl)-2-{2-[3-methoxy-4-(4-methyl-imidazol-1-yl)-phenylamino]-thiazol-4-yl}-acetamide] | 950 nM
5 | COc1cc(Nc2nc([C@H](CC(C)C)NC(=O)OC(C)(C)C)cs2)ccc1-n1cnc(C)c1 [Example 30, ((S)-1-{2-[3-Methoxy-4-(4-methyl-imidazol-1-yl)-phenylamino]-thiazol-4-yl}-3-methyl-butyl)-carbamic acid tert-butyl ester] | 390 nM
6 | COc1cc(Nc2nc([C@H](CC(C)C)NC(=O)Cc3ccc(F)cc3)cs2)ccc1-n1cnc(C)c1 [Example 34, 2-(4-Fluoro-phenyl)-N—((S)-1-{2-[3-methoxy-4-(4-methyl-imidazol-1-yl)-phenylamino]-thiazol-4-yl}-3-methyl-butyl)-acetamide] | 520 nM
7 | COc1cc(Nc2nc([C@H](CC(C)C)NC(=O)c3ccc(F)cc3)cs2)ccc1-n1cnc(C)c1 [Example 37, 4-Fluoro-N—((S)-1-{2-[3-methoxy-4-(4-methyl-imidazol-1-yl)-phenylamino]-thiazol-4-yl}-3-methyl-butyl)-benzamide] | 410 nM
8 | COc1cc(Nc2nc([C@H](CC(C)C)NC(=O)CC(F)(F)F)cs2)ccc1-n1cnc(C)c1 [Example 38, 3,3,3-Trifluoro-N—((S)-1-{2-[3-methoxy-4-(4-methyl-imidazol-1-yl)-phenylamino]-thiazol-4-yl}-3-methyl-butyl)-propionamide] | 290 nM
9 | COc1cc(Nc2nc([C@H](CC(C)C)NS(=O)(=O)c3ccc(F)cc3)cs2)ccc1-n1cnc(C)c1 [Example 39, 4-Fluoro-N—((S)-1-{2-[3-methoxy-4-(4-methyl-imidazol-1-yl)-phenylamino]-thiazol-4-yl}-3-methyl-butyl)-benzene sulfonamide] | 910 nM
10 | COc1cc(Nc2nc([C@H](CC(C)C)NS(=O)(=O)Cc3ccccc3)cs2)ccc1-n1cnc(C)c1 [Example 40, N—((S)-1-{2-[3-Methoxy-4-(4-methyl-imidazol-1-yl)-phenylamino]-thiazol-4-yl}-3-methyl-butyl)-C-phenyl-methanesulfonamide] | 550 nM
11 | COc1cc(Nc2nc([C@H](CC(C)C)NS(C)(=O)=O)cs2)ccc1-n1cnc(C)c1 [Example 41, N—((S)-1-{2-[3-Methoxy-4-(4-methyl-imidazol-1-yl)-phenylamino]-thiazol-4-yl}-3-methyl-butyl)-methane sulfonamide] | 900 nM
12 | CCOC(=O)c1sc(Nc2ccc(-n3cnc(C)c3)c(OC)c2)nc1C(F)(F)F [Example 42, 2-[3-Methoxy-4-(4-methyl-imidazol-1-yl)-phenylamino]-4-trifluoromethyl-thiazole-5-carboxylic acid ethyl ester] | 640 nM
13 | COc1cc(Nc2nc3c(s2)CN(C(=O)OC(C)(C)C)CC3)ccc1-n1cnc(C)c1 [Example 43, 2-[3-Methoxy-4-(4-methyl-imidazol-1-yl)-phenylamino]-6,7-dihydro-4H-thiazolo[5,4-c]pyridine-5-carboxylic acid tert-butyl ester] | 790 nM
14 | COc1cc(Nc2nc([C@H](Cc3ccccc3)NS(=O)(=O)c3ccc(C)cc3)cs2)ccc1-n1cnc(C)c1 [Example 55, N—((S)-1-{2-[3-Methoxy-4-(4-methyl-imidazol-1-yl)-phenylamino]-thiazol-4-yl}-2-phenyl-ethyl)-4-methyl-benzenesulfonamide] | 800 nM
15 | COc1cc(Nc2ncc(C(O)c3ccccc3)s2)ccc1-n1cnc(C)c1 (centres unmarked) [Example 62, {2-[3-Methoxy-4-(4-methyl-imidazol-1-yl)-phenylamino]-thiazol-5-yl}-phenyl-methanol] | 570 nM
16 | COc1cc(Nc2ncc(C(O)c3ccc(Cl)cc3)s2)ccc1-n1cnc(C)c1 (centres unmarked) [Example 76, (4-Chloro-phenyl)-{2-[3-methoxy-4-(4-methyl-imidazol-1-yl)-phenylamino]-thiazol-5-yl}-methanol] | 340 nM
17 | COc1cc(Nc2nc(C(C)(C)c3cc(F)c(F)c(F)c3)cs2)ccc1-n1cnc(C)c1 [Example 78, [3-Methoxy-4-(4-methyl-imidazol-1-yl)-phenyl]-{4-[1-methyl-1-(3,4,5-trifluoro-phenyl)-ethyl]-thiazol-2-yl}-amine] | 680 nM

Continued, values first:

Row | IC50 | Compound
18 | 210 nM | COc1cc(Nc2nc(C)c(Cc3cccc(Cl)c3)s2)ccc1-n1cnc(C)c1 [Example 1, [5-(3-Chloro-benzyl)-4-methyl-thiazol-2-yl]-[3-methoxy-4-(4-methyl-imidazol-1-yl)-phenyl]-amine]
19 | 240 nM | COc1cc(Nc2nc(C)c(Cc3ccc(Cl)cc3)s2)ccc1-n1cnc(C)c1 [Example 2, [5-(4-Chloro-benzyl)-4-methyl-thiazol-2-yl]-[3-methoxy-4-(4-methyl-imidazol-1-yl)-phenyl]-amine]
20 | 750 nM | Cc1cn(-c2ccc(Nc3nc(C)c(Cc4cccc(Cl)c4)s3)cc2C#N)cn1 [Example 4, 5-[5-(3-Chloro-benzyl)-4-methyl-thiazol-2-ylamino]-2-(4-methyl-imidazol-1-yl)-benzonitrile]
21 | 870 nM | COc1cc(Nc2nc(C)c(Cc3ccc(C#N)cc3)s2)ccc1-n1cnc(C)c1 [Example 6, 4-{2-[3-Methoxy-4-(4-methyl-imidazol-1-yl)-phenylamino]-4-methyl-thiazol-5-ylmethyl}-benzonitrile]
22 | 520 nM | COc1cc(Nc2nc(C)c(Cc3ccccc3Cl)s2)ccc1-n1cnc(C)c1 [Example 7, [5-(2-Chloro-benzyl)-4-methyl-thiazol-2-yl]-[3-methoxy-4-(4-methyl-imidazol-1-yl)-phenyl]-amine]
23 | 570 nM | COc1cc(Nc2nc(C)c(Cc3ccc(C(C)(C)C)cc3)s2)ccc1-n1cnc(C)c1 [Example 8, [5-(4-tert-Butyl-benzyl)-4-methyl-thiazol-2-yl]-[3-methoxy-4-(4-methyl-imidazol-1-yl)-phenyl]-amine]
24 | 920 nM | COc1cc(Nc2nc(C)c(Cc3cccc(C(F)(F)F)c3)s2)ccc1-n1cnc(C)c1 [Example 9, [3-Methoxy-4-(4-methyl-imidazol-1-yl)-phenyl]-[4-methyl-5-(3-trifluoromethyl-benzyl)-thiazol-2-yl]-amine]
25 | 890 nM | COc1cc(Nc2nc(C)c(Cc3ccc(Cl)c(C(F)(F)F)c3)s2)ccc1-n1cnc(C)c1 [Example 68, [5-(4-Chloro-3-trifluoromethyl-benzyl)-4-methyl-thiazol-2-yl]-[3-methoxy-4-(4-methyl-imidazol-1-yl)-phenyl]-amine]
26 | 730 nM | COc1cc(Nc2nc(C)c(Cc3cccc(OC(F)(F)C(F)F)c3)s2)ccc1-n1cnc(C)c1 [Example 69, [3-Methoxy-4-(4-methyl-imidazol-1-yl)-phenyl]-{4-methyl-5-[3-(1,1,2,2-tetrafluoro-ethoxy)-benzyl]-thiazol-2-yl}-amine]
27 | 710 nM | COc1cc(Nc2nc(C)c(Cc3ccc(C)c(Cl)c3)s2)ccc1-n1cnc(C)c1 [Example 70, [5-(3-Chloro-4-methyl-benzyl)-4-methyl-thiazol-2-yl]-[3-methoxy-4-(4-methyl-imidazol-1-yl)-phenyl]-amine]
28 | 280 nM | COc1cc(Nc2nc(C)c(Cc3ccc(Cl)c(Cl)c3)s2)ccc1-n1cnc(C)c1 [Example 71, [5-(3,4-Dichloro-benzyl)-4-methyl-thiazol-2-yl]-[3-methoxy-4-(4-methyl-imidazol-1-yl)-phenyl]-amine]
29 | 140 nM | COc1cc(Nc2nc(C(C)(C)c3ccc(Cl)cc3)cs2)ccc1-n1cnc(C)c1 [Example 77, {4-[1-(4-Chloro-phenyl)-1-methyl-ethyl]-thiazol-2-yl}-[3-methoxy-4-(4-methyl-imidazol-1-yl)-phenyl]-amine]
